How the values were obtained:
Assay in all cases: relative viability (nuclei count vs DMSO), 5 days (fraction); higher = more cells survive
[1] = compound: O=C1NC(=O)[C@@H](c2cn3c4c(cccc24)CCC3)[C@@H]1c1c[nH]c2ccccc12 [Tivantinib] + Cc1nc(NC(=O)N2CCC[C@H]2C(N)=O)sc1-c1ccnc(C(C)(C)C(F)(F)F)c1 [Alpelisib] (partner 2 µM)
Procedure, shortened: (§1)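 Relative viability equals treated-well nuclei counts divided by vehicle-well nuclei counts. Counts came from 4× images of lung cancer cell lines grown in 1536-well plates for 5 days after pin-tool dosing on the day after seeding. Dosing used one drug alone or a fixed anchor-drug dose plus five library-drug doses (not always all listed) in √10 steps, and values are medians of duplicate plates.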

[2] = compound: CC1(COc2ccc3c(c2)ncn3-c2ccc3cccc(N4CCC(N)CC4)c3n2)COC1 [Crenolanib] + NC(=O)Nc1cc(-c2cccc(F)c2)sc1C(=O)N[C@H]1CCCNC1 [AZD7762] (partner 0.2 µM)
Procedure, shortened: as §1

[3] = compound: CC1(COc2ccc3c(c2)ncn3-c2ccc3cccc(N4CCC(N)CC4)c3n2)COC1 [Crenolanib] + Cc1cc(Nc2cc(N3CCN(C)CC3)nc(Sc3ccc(NC(=O)C4CC4)cc3)n2)n[nH]1 [Tozasertib] (partner 0.1 µM)
Procedure, shortened: as §1

[4] = compound: CC1(COc2ccc3c(c2)ncn3-c2ccc3cccc(N4CCC(N)CC4)c3n2)COC1 [Crenolanib] + COc1cccc2cc(-c3nc([C@H]4CC[C@H](C(=O)O)CC4)n4ncnc(N)c34)[nH]c12 [OSI-027] (partner 0.5 µM)
Procedure, shortened: as §1

Cell Line | relative viability ([1]; first compound 0.01 µM) | relative viability ([1]; first compound 0.03162 µM) | relative viability ([1]; first compound 0.1 µM) | relative viability ([1]; first compound 0.3162 µM) | relative viability ([2]; first compound 0.01 µM) | relative viability ([2]; first compound 0.03162 µM) | relative viability ([2]; first compound 0.1 µM) | relative viability ([2]; first compound 0.3162 µM) | relative viability ([2]; first compound 1 µM) | relative viability ([3]; first compound 0.01 µM) | relative viability ([3]; first compound 0.03162 µM) | relative viability ([3]; first compound 0.1 µM) | relative viability ([3]; first compound 0.3162 µM) | relative viability ([3]; first compound 1 µM) | relative viability ([4]; first compound 0.01 µM) | relative viability ([4]; first compound 0.03162 µM) | relative viability ([4]; first compound 0.1 µM) | relative viability ([4]; first compound 0.3162 µM) | relative viability ([4]; first compound 1 µM)
HCC-366 | 0.432 | 0.35 | 0.421 | 0.419 | 0.689 | 0.327 | 0.333 | 0.363 | 0.474 | 0.167 | 0.148 | 0.154 | 0.144 | 0.108 | 0.978 | 0.861 | 0.837 | 0.893 | 0.75
HCC-78 | 0.412 | 0.306 | 0.34 | 0.204 | 0.629 | 0.619 | 0.733 | 0.477 | 0.567 | 0.366 | 0.395 | – | 0.406 | 0.368 | 0.433 | 0.32 | – | 0.345 | 0.338
HCC-827 | 1.04 | 1.03 | 0.922 | 0.719 | 0.276 | 0.212 | 0.2 | 0.189 | 0.218 | 0.422 | 0.417 | 0.421 | 0.389 | 0.431 | 0.793 | 0.691 | 0.742 | 0.885 | 0.821
NCI-H1355 | 0.852 | 0.839 | 0.877 | 0.751 | 0.729 | 0.89 | 0.705 | 0.732 | 0.653 | 0.586 | 0.596 | 0.508 | 0.354 | 0.534 | 0.491 | 0.382 | 0.409 | 0.417 | 0.35
NCI-H838 | 0.915 | 1.06 | 0.973 | 0.953 | 0.883 | 0.977 | 0.886 | 0.924 | 0.901 | 0.321 | 0.287 | 0.25 | 0.266 | 0.251 | 0.378 | 0.358 | 0.418 | 0.366 | 0.283
NCI-H2126 | 0.745 | 0.739 | 0.749 | 0.684 | 1.07 | 1.05 | 0.927 | 1.05 | 0.973 | 0.87 | 0.909 | 0.807 | 0.699 | 0.745 | 0.727 | 0.691 | 0.751 | 0.721 | 0.644
BEN | 1.02 | 0.837 | 0.893 | 0.735 | 0.684 | 0.612 | 0.704 | 0.735 | 0.71 | 0.524 | 0.476 | 0.474 | 0.484 | 0.464 | 0.302 | 0.339 | 0.305 | 0.321 | 0.314
LCLC-97TM1 | 0.237 | 0.215 | 0.2 | 0.198 | 0.316 | 0.219 | 0.41 | 0.561 | 0.277 | 0.268 | 0.194 | 0.247 | 0.202 | 0.258 | 0.601 | 0.51 | 0.469 | 0.667 | 0.374
EKVX | 0.912 | 0.785 | 0.888 | 0.239 | 0.733 | 0.779 | 0.731 | 0.841 | 0.761 | 0.465 | 0.346 | 0.428 | 0.364 | 0.359 | 0.737 | 0.78 | 0.69 | 0.683 | 0.737
ABC-1 | 0.984 | 0.995 | 0.742 | 0.825 | – | 0.776 | 0.961 | 1.01 | 0.902 | 0.177 | 0.202 | 0.179 | 0.162 | 0.133 | 0.526 | 0.536 | 0.522 | 0.531 | 0.45
NCI-H1651 | 1.04 | 0.856 | 1.01 | 0.915 | 0.49 | 0.399 | 0.434 | 0.472 | 0.558 | 0.649 | 0.716 | 0.592 | 0.852 | 0.61 | 0.77 | 0.668 | 0.715 | 0.674 | 0.702
NCI-H2087 | 1 | 1.06 | 1.02 | 0.956 | 1.33 | 1.18 | 1.39 | 1.6 | 1.34 | 0.219 | 0.277 | 0.239 | 0.262 | 0.254 | 0.664 | 0.642 | 0.471 | 0.546 | 0.467
NCI-H1793 | 0.678 | 0.858 | 0.703 | – | 0.549 | 0.794 | 0.538 | 0.366 | 0.645 | 0.368 | 0.362 | 0.396 | 0.226 | 0.422 | 0.297 | 0.335 | 0.237 | 0.311 | 0.268
LCLC-103H | 0.905 | 0.938 | 0.839 | 0.86 | 0.758 | 0.761 | 0.714 | 0.759 | 0.702 | 0.46 | 0.588 | 0.448 | 0.359 | 0.458 | 0.443 | 0.507 | 0.397 | 0.466 | 0.384
NCI-H1437 | 0.969 | 0.934 | 0.898 | 0.971 | 1.15 | 1.18 | 1.07 | 1.19 | 1.14 | 0.458 | 0.443 | 0.415 | 0.437 | 0.39 | 0.902 | 0.862 | 0.936 | 0.869 | 0.855
HARA | 0.962 | 0.737 | 0.827 | 0.431 | 0.399 | 0.391 | 0.588 | 0.248 | 0.509 | 0.138 | 0.131 | 0.145 | 0.116 | 0.121 | 0.639 | 0.501 | 0.319 | 0.591 | 0.396
NCI-H1755 | 0.918 | 0.936 | 0.886 | 0.902 | 0.423 | 0.468 | 0.362 | 0.529 | 0.484 | 0.666 | 0.594 | 0.527 | 0.501 | 0.549 | 0.701 | 0.797 | 0.696 | 0.708 | 0.653

— the supplement of paper PMC10307832
